The values below come from paper PMC4373826, “Antiviral Effect of Methylated Flavonol Isorhamnetin against Influenza” (PLoS ONE, 2015).

Series [1] concerns influenza A/PR/8/34 (H1N1). The series is described as follows: In ovo virus titer in embryonated chicken egg. The format is in vivo. The method, then:
Virus was serially diluted (10-fold serial dilution) and inoculated into the eggs, and then the virus titers were calculated as log10EID50/ml. At the cellular level, virus titration was determined via the hemagglutination assay (as described in detail in the WHO surveillance guidelines) and by the cytopathic effect (CPE) of MDCK cells induced by viral infection, and expressed as 50% tissue culture infectious doses (TCID50), which were calculated based on the method of Reed and Muench.In mice, 50% mouse lethal dose (MLD50) was defined as 50% egg infective dose (EID50) that led to 50% mice mortality that calculated according to Reed and Muench. The flavonoids quercetin, kaempferol, isorhamnetin, diosmetin, and eriodictyol were purchased from the Indofine Chemical Company, Hillsborough, NJ, USA. The flavonoids and PD-98059 (MEK inhibitor, Calbiochem, La Jolla, CA, USA) were dissolved in dimethylsulfoxide (DMSO, Sigma-Aldrich).The final concentration of DMSO in the culture media is 0.2% (v/v). Tamiflu (Oseltamivir, 75 mg) was purchased from Roche-Korea (Seoul, South Korea) Co. Ltd.

Series [2] deals with influenza A/PR/8/34 (H1N1). The experiment in a line: microbe, parasite or virus in culture. The note with it: MDCK.
For series [3], the system named is influenza A/PR/8/34 (H1N1).
Series [4] concerns influenza A/PR/8/34 (H1N1). The format is cell-based, influenza A virus. Particulars: post-treatment 48 hr.
Series [5] in a line: Cytotoxicity assay (EZ-Cytox) in MDCK cells. Particulars: dog; MDCK cells, 48 hr. The class given is cell-based, canine. As for the experimental part:
To determine the 50% cytotoxic concentration (CC50) for each of the tested flavonoid compounds, MDCK cells were seeded onto 96-well plates (NUNC, Penfield, NY, USA) at a density of 1 × 10^4 cells per well and incubated overnight for 80% confluence. MDCK cells were washed twice with PBS and the culture medium was replaced with medium containing serially diluted flavonoids (concentrations from 10μM up to 300 μM) for 48 hr at 37°C in a 5% CO2atmosphere. After the incubation period, the flavonoid-containing media was replaced with new media containing 10% EZ-Cytox (Daeil Lab Service, Seoul, South Korea), and the cells were incubated in the dark for 3 hr at 37°C in a 5% CO2 atmosphere. The optical density was measured at 480 nm using an x-Mark spectrophotometer (Bio-Rad, Hercules, CA, USA). Cytotoxicity was estimated by comparing the cell survival rate of the flavonoids-treated cells and the DMSO-treated cells with the control (virus-untreated) cells. The control cell values were arbitrarily set as the 100% survival rate. The treated cells values were normalized to the control cell values. The calculation of CC50 was carried out as described in detail in S1 Text.
The 50% cytotoxic concentration (CC50) was calculated according to the following equation:
Cytotoxicity (%) = [100-(ODt/ODs)] x100
ODt: The optical density (OD) of cells treated with the tested flavonoids.
ODs: The OD of cells treated with the control solvent (0.2 % DMSO).
After obtaining the results, we calculated the concentration that induces 50% cell death using the following equation:
(X2 - X1) X (50-Y1) / (Y2 - Y1) + X1. Where, X1 represents the lower concentration used in this experiment, while X2 represents the higher concentration. Y1 represents the mean of the percentage of the viable cells at X1 concentration. On the other hand, Y2 represents the mean of the percentage of the viable cells at X2 concentration.”

The next series has as its system Atg-5, Atg-7, and LC3B. The series is described as follows: RT-PCR of autophagy-related genes. Particulars: 50 μM. The format is cell-based, canine. As for the experimental part:
MDCK cells were seeded in 6-well plates and incubated overnight for 80% confluence. After the medium was removed, the cells were washed twice with PBS and infected with the virus as described in the antiviral assay section. Total RNA was isolated using Trizol (Invitrogen, Waltham, MA, USA) according to the manufacturer’s instructions. Synthesis of cDNA was performed using 5 μg of total RNA with MMLV reverse transcriptase (Promega, Madison, WI, USA). The primer sequences used in our study were as follows: HA (forward, 5′-[…]-3′;reverse,5′-[…]-TGACACT-3′); NA (forward, 5′-[…]-3′; reverse,5′-[…]-3); ATG-5 (forward, 5′-[…]-AACAG-3′; reverse, 5′-[…]-3′); ATG-7 (forward, 5′-[…]-3′; reverse, 5′-[…]-A-3′); LC3B (forward, 5′-[…]-3′; reverse, 5′-CTGG-[…]-3′); and GAPDH (forward, 5′-[…]-GGAGC-3′; reverse, 5′-[…]-3′).The expression of mRNA was normalized to that of the control housekeeping gene, GAPDH.

Series [6] concerns influenza A/PR/8/34 (H1N1). The experiment in a line: In vivo antiviral assay in infected mice. On the set-up: species or system C57BL/6 mice. As for the experimental part:
Six-week-old female C57BL/6 mice purchased from KOATECH (Pyeongtaek, South Korea) infected with the PR8 influenza strain (A/PR/8/34, H1N1). After anesthesia, mice were inoculated with 4.25 log10EID50/mL (5 MLD50/mice) in 30 μL sterile PBS via the intranasal route. Two hours post-infection, each group (13 mice) received the following compounds: (1) Tamiflu capsules were dissolved in PBS at a concentration of 10mg/kg and then centrifuged at 1,000rpm/10minutes for removal of the filler. From this solution 200 μL was administered per day orally for 5 days, or (2) flavonoid (Isorhamnetin) was initially dissolved in 0.2% DMSO and then diluted in PBS to a final concentration of 1 mg/kg and less than 0.2% DMSO. This mixture mixed will by vortex and 30 μL of this mixture was administered per day via the intranasal route for 5 days.
One week after infection, the lungs of 3 mice per group were collected for the virology analysis. Lung tissues were excised, homogenized using a homogenizer (Tissue Lyser, Qiagen, Valencia, CA, USA), and centrifuged (2,000 g for 5 min). Ten-fold serial dilutions of the supernatant from the lung homogenate samples were subjected to the virology assays for virus titer determination. Lung homogenates were injected into the allantoic sac of 10-day-old embryonated eggs, which were incubated at 37°C for 48 hr, after which the allantoic fluid was harvested. The virus titer in the allantoic fluid was assessed using the HA assay. The virus titer (EID50/mL) in the fluid was calculated based on the method of Reed and Muench. For the assessments of body weight and survival rate, mice were observed daily for 14 days and monitored for clinical signs.

The subject of series [7] is influenza A/PR/8/34 (H1N1). The experiment in a line: in vitro. Particulars: dog, SI (selective index, CC50/EC50).
The mark [8] stands for this setting: infected mice, abstract says oral administration.

Marks after values point to notes of the source that are not given here. A value given as a limit tells only on which side of the number the result lay.

What is called EC50 is the concentration that produces a half-maximal response. The term CC50 denotes the concentration that lowers cell viability or growth by half. Low readings indicate harm at low concentration, high ones better tolerance by the cells. For `COc1cc(-c2oc3cc(O)cc(O)c3c(=O)c2O)ccc1O` [Isorhamnetin, isorhamnetin], in series [1], the “Virus titer (Embryonated chicken egg)” value was 10^8 ^* EID50/ml. For the same molecule, the EC50 in series [2] (0.5 h, Co-treatment (0.5 hr)) is 76 µM; in series [2] (1 h, Co-treatment (1 hr)), 42 µM; in series [2] (2 h, Co-treatment (2 hr)), below 30 µM; in series [2] (48 h, Post-treatment), 23 µM; in series [2] (Pre-treatment (1 hr)) it was 51 µM; in series [2] (Pre-treatment (12 hr)), 65 µM. In addition, in series [2] (Pre-treatment (24 hr)), the EC50 was 88 µM. Further, the “cell viability after viral infection” value in series [3] is “increased cell viability in comparison with quercetin treatment”. Besides, in series [3] (50 μM, co-treatment for 2 hr), the viral infection result is “significantly inhibited”. The “influenza virus-induced cell death” value in series [3] (post-treatment) is “apparent suppression”. Moreover, the “virus titer in HA assay (virus yield reduction)” value in series [4] is given as “almost completely suppressed”. In series [5], the CC50 at 48 h is above 280 µM. Also, in the series on Atg-5, Atg-7, and LC3B, the “virus-induced overexpression of autophagy-related genes Atg-5, Atg-7, and LC3B” value is “inhibited”. The “toxic effect in mice” value in series [6] (data not shown) is “no significant toxic effect”. Besides, the survival rate in series [6] (infected mice, observed 14 days) is recorded as 70–80%. Moreover, the “decrease in body weight loss” value in series [6] (setting [8]) is 25%. The “decrease in lung virus titer” value in series [6] (setting [8]) amounted to 2 folds. For the same molecule, in series [6] (vs PBS control group, 14 days), the body weight loss result is recorded as “reduced body weight loss”. Moreover, the figures for the selectivity ratio in series [7] (Co-treatment (2 hr)) and in series [7] (Post-treatment) were above 9 and above 12, respectively.
